Test results from publication PMC8192900, “Label-free high-throughput screening assay for the identification of norepinephrine transporter (NET/SLC6A2) inhibitors” (Scientific Reports, 2021).
Where two headings read alike, the source gives them in different places.

Columns and labels:
[1] = test system: JumpIn-NET cells; experiment: Effect of NET inhibitor alone on normalized Cell Index during 1 h pretreatment (xCELLigence); type: cell-based, human; settings: +dox JumpIn-NET cells; for Effect on nCI during pretreatment at highest tested concentration: 10 µM
[2] = test system: JumpIn-NET cells; experiment: TRACT assay (xCELLigence impedance): substrate-induced cellular response, apparent substrate potency; type: cell-based, human; settings: for Decrease of apparent potency in dox-treated compared to vehicle-treated cells: +dox vs −dox JumpIn-NET cells; for EC50: Homo sapiens
[3] = doxycycline-treated (+dox) JumpIn-NET cells, 1 h pretreatment with 1 µM nisoxetine, read-out: Apparent potency pEC50 ± SEM (converted)
[4] = vehicle-treated (−dox) JumpIn-NET cells, no nisoxetine pretreatment, net AUC first 30 min, read-out: Apparent potency pEC50 ± SEM (converted)

Compound	Effect on nCI during pretreatment at highest tested concentration [1]	Decrease of apparent potency in dox-treated compared to vehicle-treated cells [2]	EC50 [2, 3] [nM]	EC50 [2, 4] [nM]	also measured
CNCC[C@@H](Oc1ccccc1C)c1ccccc1.Cl [Atomoxetine, atomoxetine hydrochloride]	transient increase in nCI	–	–	–	–
CC(NC(C)(C)C)C(=O)c1cccc(Cl)c1.Cl (centres unmarked) [Bupropion, bupropion hydrochloride]	transient increase in nCI	–	–	–	–
Cl.NCCc1ccc(O)c(O)c1 [DA, dopamine hydrochloride]	–	twofold lower	39800	7940	–
CNC[C@H](O)c1ccc(O)c(O)c1.O=C(O)C(O)C(O)C(=O)O [EP, (−)-epinephrine (+)-bitartrate salt]	–	decreased tenfold	–	–	Basal response in vehicle-pretreated cells, higher than that of NE ([2]; 1 µM substrate (EC20), +dox cells, no inhibitor): approximately 60%; EC50 ([2]; read-out: Apparent potency pEC50 ± SEM, doxycycline-treated (+dox) JumpIn-NET cells, 1 h pretreatment with 1 µM nisoxetine (converted)): 501 nM; EC50 ([2]; read-out: Apparent potency pEC50 ± SEM, doxycycline-treated (+dox) JumpIn-NET cells, no nisoxetine pretreatment (converted)): 3980 nM; EC50 ([2]; read-out: Apparent potency pEC50 ± SEM, vehicle-treated (−dox) JumpIn-NET cells, no nisoxetine pretreatment (converted), net AUC first 30 min): 398 nM
CNCCC(Oc1ccccc1OC)c1ccccc1.Cl (centres unmarked) [Nisoxetine, Nisoxetine hydrochloride]	transient increase in nCI	–	–	–	Effect on nCI during the 1 h pretreatment ([1]; 1 µM): did not affect the nCI
